How the values were obtained:
MsGGP [1] = target: T1, MsGGP (Marinobacter salinexigens, UniProt A0A5B0VBK8, D190A); assay: ion exchange chromatography, activity relative to wild type; format: biochemical; details: 20 mM GG, 20 mM potassium phosphate, pH 6.6, 45 °C
T1 construct: gene gtfA; full length, 480 residues, subunit 54,844 Da, N-terminal His6 tag (pET28b), E. coli BL21(DE3); six protomers in asymmetric unit

MsGGP [2] = target: T2, MsGGP (Marinobacter salinexigens, UniProt A0A5B0VBK8, E231A); assay: as above; format: biochemical; details: 20 mM GG, 20 mM potassium phosphate, pH 6.6, 45 °C
T2 construct: gene gtfA; full length, 480 residues, subunit 54,844 Da, N-terminal His6 tag (pET28b), E. coli BL21(DE3); six protomers in asymmetric unit

MsGGP [3] = target: T3, MsGGP (Marinobacter salinexigens, UniProt A0A5B0VBK8, D289A); assay: as above; format: biochemical; details: 20 mM GG, 20 mM potassium phosphate, pH 6.6, 45 °C
T3 construct: gene gtfA; full length, 480 residues, subunit 54,844 Da, N-terminal His6 tag (pET28b), E. coli BL21(DE3); six protomers in asymmetric unit

MsGGP [4] = target: T4, MsGGP (Marinobacter salinexigens, UniProt A0A5B0VBK8); assay: X-ray crystal structure, […] Å; format: binding; details: active site, together with glycerol
T4 construct: gene gtfA; full length, 480 residues, subunit 54,844 Da, N-terminal His6 tag (pET28b), E. coli BL21(DE3); six protomers in asymmetric unit

MsGGP [5] = target: T4, MsGGP; assay: X-ray crystal structure, […] Å; format: binding; details: active site of chains A and E; reaction intermediate

## OCC(CO)O[C@H]1O[C@H](CO)[C@@H](O)[C@H](O)[C@H]1O [2-O-α-Glucosylglycerol]
MsGGP [1]
  enzyme activity relative to wildtype: nearly complete loss of enzyme activity following the mutation of these residues to alanine
MsGGP [2]
  enzyme activity relative to wildtype: nearly complete loss of enzyme activity following the mutation of these residues to alanine
MsGGP [3]
  enzyme activity relative to wildtype: nearly complete loss of enzyme activity following the mutation of these residues to alanine

## OC[C@H]1O[C@H](O)[C@H](O)[C@@H](O)[C@@H]1O [glucose]
MsGGP [4]
  X-ray crystal structure, 2.5 Å: each protomer features an α-glucose and a glycerol molecule occupying the active site

## O=P(O)(O)O[C@H]1O[C@H](CO)[C@@H](O)[C@H](O)[C@H]1O [α-D-glucose-1-phosphate]
MsGGP [5]
  X-ray crystal structure, 2.7 Å: the structure of MsGGP in complex with αGlc1-P was successfully determined

Reference: article PMC11787520, “Structural basis of the bifunctionality of Marinobacter salinexigens ZYF650^T glucosylglycerol phosphorylase in glucosylglycerol catabolism” (The Journal of Biological Chemistry, 2024)
